Results: US20060105023A1, “Treatment of neurological disorders with nicotine” (priority 2001, published 2006)

Key:
[1] = people with average metabolic capacity for the compound; cited from earlier work
[2] = within six hours, at a half life of about 60 minutes
Description: It should be kept in mind that nicotine is a toxic compound. Therefore, only the minimum amount required for relief from smoking addiction or migraine symptoms should be used. […] Fortunately, nicotine is metabolized fairly rapidly.

adult = details: absorbed in one dose; cited from earlier work

For `CN1CCCC1c1cccnc1` (stereo not drawn) [nicotine], the half life [1] is listed as “about 60 minutes”, the “amount remaining of one mg of nicotine absorbed in the body” value [2] is listed as “about 0.031 mg” and the lethal dose (adult) is listed as “Sixty”.
